Reference: patent publication US20230331679A1, “NAPHTHALENE MONOIMIDE COMPOUNDS AND METHODS THEREOF” (JAWAHARLAL NEHRU CENTRE FOR ADVANCED SCIENTIFIC RESEARCH, priority 2020, published 2023)

How the values were obtained:
α-Syn = α-Syn (Homo sapiens, UniProt P37840); assay: ThT binding assay, α-Syn aggregation inhibition; format: biochemical
From the text: Parkinson’s disease (PD) is a neuronal disorder, mainly affects the motor system. α-Syn is a presynaptic neuronal protein that is linked neuropathologically to PD plays a vital role in the pathogenesis in a number of ways. Self-aggregation of α-Syn to form fibrillar aggregates and these toxic species mediate disruption of cellular homeostasis and cause neuronal death. These toxic aggregates affect various intracellular targets, especially synaptic function. In this context, NMI compounds of the present disclosure were used to study the possible modulation of α-Syn aggregation. The effect of NMI compounds (TGR63 and TGR64) on α-syn (100 µM) aggregation inhibition was studied through ThT binding assay. Experiments were performed at stoichiometric ratios (α-Syn:inhibitor) of 1:1, 1:2, and 1:5 with the fixed concentration of α-Syn at 100 µM.

Aβ42 = target: T1, Aβ42 (Homo sapiens, UniProt P05067); assay: ThT binding assay, inhibition of Aβ42 fibrillar assembly; format: biochemical; conditions: for inhibitory effect on Aβ42 aggregation (ThT NFI at 482 nm): 1:1 molar ratio, 10 µM Aβ42, 10 µM inhibitor, 72 h; for decrease in the formation of Aβ aggregates: Aβ42/inhibitor 1:1, Aβ42 10 µM; for decrease in the formation of Aβ aggregates / Aβ aggregation decreased to: third day of incubation
T1 construct: commercially available β-amyloid peptide (1-42), human; purchased marck (so in the source) PP69-.025 mg
Method: (§1) Monomeric form of Aβ42 peptide was prepared by dissolving 0.25 mg of commercially available β-amyloid peptide (1-42), human (cat: PP69-.025 mg), marck peptide in 250 µL of hexafluoro-2-propanol (HFIP) solvent to obtain a Aβ42 solution. This solution was incubated at room temperature for 1 hour, further to which the HFIP solvent was removed by nitrogen gas flow to obtain the monomeric Aβ42 peptide. To prepare a fibrillar sample of Aβ42 peptide, 0.025 mg of Aβ42 peptide was dissolved in […] of PBS buffer (pH = 7.4; contains 2% of DMSO or 100 mM NaOH) to obtain a monomeric Aβ42 solution and the peptide concentration in this solution was calculated through UV-Visible absorbance studies (ε = 1450 cm^-1 M^-1). The Aβ42 monomeric solution was incubated for 5 days in PBS buffer (pH = 7.4) to allow for the full phase formation of Aβ42 fibrils. The presence of Aβ42 fibrils was further confirmed by ThT assay.
Initially, the ability of the prepared NMI compounds, TGR63-68 to inhibit Aβ42 fibrillar assembly at 1:1 molar ratio with Aβ42 fibrils was evaluated using thioflavin (ThT) binding assay. 10 µM of Aβ42 fibrils in the absence (Ctrl) and the presence of 10 µM of inhibitors individually were incubated for 72 h. A normalized data for fluorescence intensity (NFI) of ThT at 482 nm (λex = 442 nm) was measured as represented in FIG. 1(a).
(§2) The ability of NMI compounds (TGR63, TGR64 and TGR65) to prevent Aβ42 fibrillar assembly (inhibition) and to break down the preformed fibrils (dissolution) was evaluated using thioflavin (ThT) binding assay. Aβ42 fibrils at a concentration of 10 µM and its aggregates, were used to study the effect of NMI compounds (TGR63, TGR64 and TGR65) at varying concentrations on both inhibition and dissolution assays. For the inhibition assay, all the NMI compounds (TGR63, TGR64 and TGR65) were added independently to Aβ peptide (10 µM) at 0 h of the experiment, whereas for the aggregates dissolution assay they were added to Aβ42 fibrillar aggregates grown for 2 days. Upon incubating for a predetermined period, Aβ42 inhibitor samples were analyzed using ThT by measuring the fluorescence change at 485 nm as presented in FIG. 1(b) and FIG. 1(c), wherein the error bars represent the standard deviation (SD) of the fluorescence measurement. Fluorescence values were normalized to maximal fluorescence intensity at 485 nm compared to that of the control (Aβ42 with no inhibitor). Experiments were performed at various stoichiometric ratios (Aβ42/inhibitor) of 1:1, 1:2, and 1:5 with a fixed concentration of Aβ42 at 10 µM. Each experiment was repeated three times (n = 3). […] TGR 63 recorded 80% dissolution efficiency while TGR 64 and TGR 65 recorded 75% and 78% dissolution efficiency respectively, for the stoichiometric ratio of 1:5.

[1] = target: T2, Aβ42 fibrillar aggregates (Homo sapiens, UniProt P05067); assay: ThT binding assay, dissolution of preformed Aβ42 fibrils; format: biochemical; conditions: after sixth day of incubation
T2 construct: commercially available β-amyloid peptide (1-42), human; purchased marck (so in the source) PP69-.025 mg
Method: as §1, §2

PC12 cells = assay: Rescue of PC12 cells from Aβ42 toxicity (MTT cell viability assay); conditions: for viability at 40 µM: Rattus norvegicus, PC-12, 24 h, read-out: cell viability, PC12 cells, Aβ42 20 µM + compound 40 µM, 24 h; for enhancement in the viability of cells from Aβ toxicity: versus Aβ42 alone (54%)
Method: A 96-well plate was used to culture the cells (15,000 per well) with RPMI media (10% fetal bovine serum (FBS), 5% horse serum (HS,), and 1% pen-strep (PS)) at 37° C. temperature in a 5% CO2 atmosphere. Then the media was exchanged with low serum (2% FBS) media and monomeric Aβ42 was added in the absence and presence of NMI compounds and incubated for 24 h.
The structure-activity relationship (SAR) of NMI compounds towards rescuing PC12 cells from Aβ toxicity was investigated. […] Each experiment was repeated three times (n = 3), and error bars represent the standard deviation (SD).
An Alzheimer’s disease-like environment was mimicked by exposing the cultured PC12 cells to 20 µM of Aβ42 fibrils, which formed cytotoxic aggregation species in the growth media.

T2 sequence (P05067 672-713 limits assumed): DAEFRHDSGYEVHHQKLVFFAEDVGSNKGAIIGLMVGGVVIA
T1 sequence (P05067 672-713 limits assumed): as above

SMILES | decrease in the formation of α-Syn aggregates (α-Syn; α-Syn:inhibitor 1:1, α-Syn 100 µM) | α-Syn aggregation decreased to (α-Syn; α-Syn:inhibitor 1:2, α-Syn 100 µM) [%] | α-Syn aggregation decreased to (α-Syn; α-Syn:inhibitor 1:5, α-Syn 100 µM) [%] | inhibitory effect on Aβ42 aggregation (ThT NFI at 482 nm) (Aβ42) | decrease in the formation of Aβ aggregates (Aβ42) | Aβ aggregation decreased to (Aβ42; Aβ42/inhibitor 1:2, Aβ42 10 µM) [%] | Aβ aggregation decreased to (Aβ42; Aβ42/inhibitor 1:5, Aβ42 10 µM) [%] | dissolution efficiency ([1]; Aβ42/inhibitor 1:1, Aβ42 10 µM) | dissolution efficiency ([1]; Aβ42/inhibitor 1:2, Aβ42 10 µM) | dissolution efficiency ([1]; Aβ42/inhibitor 1:5, Aβ42 10 µM) [%] | cell viability (PC12 cells; PC12 cells, Aβ42 20 µM + compound 40 µM, 24 h, Aβ42 alone 54%, untreated 100%) [%] | viability at 40 µM (PC12 cells; Aβ42 alone 54%, untreated 100%) [%] | enhancement in the viability of cells from Aβ toxicity (PC12 cells; PC12 cells)
CN(C)c1ccc(C#Cc2ccc3c4c(cccc24)C(=O)N(CCN)C3=O)cc1 [TGR64, 2-(2-aminoethyl)-6-((4-(dimethylamino)phenyl)ethynyl)-1H-benzo[de]isoquinoline-1,3(2H)-dione] | ~ 54% | 72 | 77 | ~38% | ~ 50% | 75 | 90 | ~ 35% | ~ 50% | 75 | 76 | 78 | –
CN(C)c1ccc(C#Cc2ccc3c4c(cccc24)C(=O)N(CCOCCO)C3=O)cc1 [TGR65, 6-((4-(dimethylamino)phenyl)ethynyl)-2-(2-(2-hydroxyethoxy)ethyl)-1H-benzo[de]isoquinoline-1,3(2H)-dione] | – | – | – | ~25% | ~ 50% | 75 | 90 | ~ 35% | ~ 50% | 78 | – | 62 | –
C[N+](C)(C)CCN1C(=O)c2cccc3cccc(c23)C1=O [TGR66, 2-(1,3-dioxo-1H-benzo[de]isoquinolin-2(3H)-yl)-N,N,N-trimethylethan-1-aminium] | – | – | – | ~ 10% | – | – | – | – | – | – | – | – | ~ 26%
CN(C)c1ccc2c3c(cccc13)C(=O)N(CC[N+](C)(C)C)C2=O [TGR67, 2-(6-(dimethylamino)-1,3-dioxo-1H-benzo[de]isoquinolin-2(3H)-yl)-N,N,N-trimethylethan-1-aminium] | – | – | – | ~7% | – | – | – | – | – | – | – | – | ~22%
C[N+](C)(C)CCN1C(=O)c2cccc3c(C#Cc4ccccc4)ccc(c23)C1=O [TGR68, 2-(1,3-dioxo-6-(phenylethynyl)-1H-benzo[de]isoquinolin-2(3H)-yl)-N,N,N-trimethylethan-1-aminium] | – | – | – | ~5% | – | – | – | – | – | – | – | – | ~8%
